The subject of test [1] is Male rats (SD/JCL). Kind of test: Antianxiety action (Vogel method, anticonflict water drinking test). In kind it is in vivo. To be noted: for Minimum Effective Dose (MED): rats; for antianxiety action stronger than that of the racemic compounds: ratio of MED of the racemic compound to MED of the optically active compound (Table 2).
Test [2] addresses benzodiazepine receptor. Kind of test: [3H]diazepam binding to benzodiazepine receptor (crude mitochondrial fraction of cerebral cortex). More on the design: species or system male SD rats. The conditions noted are these: inhibition of ³H-diazepam (2 nM) binding by 50%, 4 °C, 20 minutes, Tris-HCl pH 7.4; read-out: IC₅₀. As for the experimental part:
The affinity of the compound of the present invention to a benzodiazepine receptor was investigated using radioactive [³H] diazepam.
Capability of specific binding to a benzodiazepin receptor was determined in accordance with the method described in the literature [Nature, 266, 732 (1977); European J. Pharmacol., 48, 263 (1978)]. Specifically, a crude mitochondrial fraction obtained from the cerebral cortex of male SD rats at 9 to 10 weeks of age was suspended in 50 mM Tris-HCL buffer (pH 7.4), and incubated, together with several concentrations of the subject drug and ³H-diazepam (final concentration 2 nM), at 4 °C for 20 minutes. This suspension was then filtered through a Whatman GF/B glass fiber filter, and the ³H-diazepam radioactivity on the filter was measured using a liquid scintillation counter. The concentration of the subject drug at which ³H-diazepam binding was inhibited by 50% was taken as the IC₅₀ value.

Regarding `O=C(C[C@H]1c2ccccc2C(=O)N1c1ccc2ccc(Cl)nc2n1)N1CCC(O)CC1` [Example 3, (S)-(+)-2-(7-chloro-1,8-naphthylidin-2-yl)-3-[(4-hydroxypiperidin-1-yl)carbonylmethyl]isoindolin-1-one], the “Minimum Effective Dose (MED)” value in test [1] (i.p., Vogel method) was “Compound in Example 3 5.0 mg/kg, i.p”. The “antianxiety action stronger than that of the racemic compounds” value in test [1] was determined as 4 times. Besides, in test [2], the IC50 was found to be 920 pM.
Take `O=C(C[C@H]1c2ccccc2C(=O)N1c1ccc2ccc(Cl)nc2n1)N1CCC2(CC1)OCCO2` [Example 1, (S)-(+)-2-(7-chloro-1,8-naphthylidin-2-yl)-3-[(1,4-dioxa-8-azaspiro[4.5]dec-8-yl)carbonylmethyl]isoindolin-1-one]: the “antianxiety action stronger than that of the racemic compounds” value in test [1] was 8 times. Moreover, the IC50 in test [2] was determined as 320 pM.
Take `O=C(CC1c2ccccc2C(=O)N1c1ccc2ccc(Cl)nc2n1)N1CCC2(CC1)OCCO2` (racemic) [Racemic compound of Example 1, 2-(7-chloro-1,8-naphthylidin-2-yl)-3-[(1,4-dioxa-8-azaspiro[4.5]dec-8-yl)carbonylmethyl]isoindolin-1-one, reference compound]: the “Minimum Effective Dose (MED)” value in test [1] (p.o., 30 minutes after dosing, water drinking frequency in 3 minutes) is 10 mg/kg, p.o. Also, the IC50 in test [2] came to 380 pM.
For `O=C(CC1c2ccccc2C(=O)N1c1ccc2ccc(Cl)nc2n1)N1CCC(O)CC1` (racemic) [Racemic compound of Example 3, 2-(7-chloro-1,8-naphthylidin-2-yl)-3-[(4-hydroxypiperidin-1-yl)carbonylmethyl]isoindolin-1-one, reference compound], the “Minimum Effective Dose (MED)” value in test [1] (i.p., Vogel method) is listed as 20 mg/kg, i.p. The IC50 in test [2] amounted to 2140 pM.

For the origin of these results see patent publication EP0602814A1, “Crystal forms of optically active isoindolines and their use” (TAKEDA CHEMICAL INDUSTRIES, LTD., priority 1992, dated 1994).
